From ChEMBL document CHEMBL5465560, “Selectivity Literature for EUbOPEN Chemogenomic Library” (2024)
Each block holds one compound with its values, some of them ahead of it.

Key:
[1] = target: Tyrosine-protein kinase HCK (Homo sapiens) (UniProt P08631); test: Selectivity interaction (Kinase panel (Z-LYTE Assay)) EUB0001632a HCK; settings: at 10 µM
[2] = target: Casein kinase II subunit alpha' (Homo sapiens) (UniProt P19784); test: Selectivity interaction (SelectScreen profiling (Invitrogen)) EUB0000607a CSNK2A2; settings: at 2 µM
Casein kinase II subunit alpha' (Homo sapiens), sequence (P19784 whole entry, looked up): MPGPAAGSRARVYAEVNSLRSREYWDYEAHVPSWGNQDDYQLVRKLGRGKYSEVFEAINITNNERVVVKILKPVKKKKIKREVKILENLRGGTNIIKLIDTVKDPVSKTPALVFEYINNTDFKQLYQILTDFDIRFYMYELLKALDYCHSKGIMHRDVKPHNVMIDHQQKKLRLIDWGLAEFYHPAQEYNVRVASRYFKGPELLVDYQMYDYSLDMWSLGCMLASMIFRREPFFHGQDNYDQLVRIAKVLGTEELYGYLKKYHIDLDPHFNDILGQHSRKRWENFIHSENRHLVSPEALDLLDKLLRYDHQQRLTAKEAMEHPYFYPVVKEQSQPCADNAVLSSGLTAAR

[3] = target: T1, Serine/threonine-protein kinase 17A (Homo sapiens) (UniProt Q9UEE5); test: Selectivity interaction (Upstate Kinase Profiler service (Millipore)) EUB0000056c STK17A; settings: at 1 µM
T1 sequence (whole entry): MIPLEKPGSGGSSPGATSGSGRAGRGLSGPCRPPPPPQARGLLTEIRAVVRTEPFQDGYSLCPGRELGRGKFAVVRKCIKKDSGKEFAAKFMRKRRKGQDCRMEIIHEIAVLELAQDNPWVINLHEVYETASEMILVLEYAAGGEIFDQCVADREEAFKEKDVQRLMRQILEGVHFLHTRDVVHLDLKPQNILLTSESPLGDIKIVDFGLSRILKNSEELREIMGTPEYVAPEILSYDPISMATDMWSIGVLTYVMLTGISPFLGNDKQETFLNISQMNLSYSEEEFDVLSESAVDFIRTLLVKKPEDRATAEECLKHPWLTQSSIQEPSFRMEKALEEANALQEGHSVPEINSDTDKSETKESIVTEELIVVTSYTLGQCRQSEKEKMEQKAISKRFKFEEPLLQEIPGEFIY

[4] = target: Macrophage colony-stimulating factor 1 receptor (Homo sapiens) (UniProt P07333); test: Selectivity interaction (KinomeScan (DiscoverX)) EUB0000699a CSF1R; settings: at 10 µM
Macrophage colony-stimulating factor 1 receptor (Homo sapiens), sequence (P07333 whole entry): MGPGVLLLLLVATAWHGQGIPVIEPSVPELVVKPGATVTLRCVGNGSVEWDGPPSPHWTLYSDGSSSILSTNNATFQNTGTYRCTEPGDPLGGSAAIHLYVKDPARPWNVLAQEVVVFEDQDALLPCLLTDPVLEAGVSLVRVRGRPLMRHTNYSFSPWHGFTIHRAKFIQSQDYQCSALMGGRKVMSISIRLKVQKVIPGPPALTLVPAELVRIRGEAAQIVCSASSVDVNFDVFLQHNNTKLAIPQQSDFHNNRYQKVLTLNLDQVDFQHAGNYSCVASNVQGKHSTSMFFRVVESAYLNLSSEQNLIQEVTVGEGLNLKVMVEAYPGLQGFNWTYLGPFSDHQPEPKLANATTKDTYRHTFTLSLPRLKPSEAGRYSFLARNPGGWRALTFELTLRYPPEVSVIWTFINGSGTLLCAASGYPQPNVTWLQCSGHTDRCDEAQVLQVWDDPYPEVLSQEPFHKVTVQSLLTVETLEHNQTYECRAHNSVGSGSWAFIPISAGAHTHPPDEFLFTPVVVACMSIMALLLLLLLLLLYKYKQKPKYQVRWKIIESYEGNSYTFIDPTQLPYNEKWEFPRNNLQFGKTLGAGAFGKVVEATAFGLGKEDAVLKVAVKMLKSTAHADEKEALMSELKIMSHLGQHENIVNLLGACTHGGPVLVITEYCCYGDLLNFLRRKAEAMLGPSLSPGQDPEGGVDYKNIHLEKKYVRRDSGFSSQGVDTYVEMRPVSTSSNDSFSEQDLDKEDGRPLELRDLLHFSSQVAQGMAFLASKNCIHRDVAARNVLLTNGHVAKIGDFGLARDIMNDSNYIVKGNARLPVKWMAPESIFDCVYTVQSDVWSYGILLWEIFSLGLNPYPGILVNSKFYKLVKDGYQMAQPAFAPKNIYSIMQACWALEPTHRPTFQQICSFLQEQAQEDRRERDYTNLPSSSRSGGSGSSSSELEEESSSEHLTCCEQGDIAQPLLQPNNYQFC

[5] = target: Dual specificity mitogen-activated protein kinase kinase 1 (Homo sapiens, UniProt Q02750); settings: at 10 µM
Dual specificity mitogen-activated protein kinase kinase 1, sequence (Q02750 whole entry): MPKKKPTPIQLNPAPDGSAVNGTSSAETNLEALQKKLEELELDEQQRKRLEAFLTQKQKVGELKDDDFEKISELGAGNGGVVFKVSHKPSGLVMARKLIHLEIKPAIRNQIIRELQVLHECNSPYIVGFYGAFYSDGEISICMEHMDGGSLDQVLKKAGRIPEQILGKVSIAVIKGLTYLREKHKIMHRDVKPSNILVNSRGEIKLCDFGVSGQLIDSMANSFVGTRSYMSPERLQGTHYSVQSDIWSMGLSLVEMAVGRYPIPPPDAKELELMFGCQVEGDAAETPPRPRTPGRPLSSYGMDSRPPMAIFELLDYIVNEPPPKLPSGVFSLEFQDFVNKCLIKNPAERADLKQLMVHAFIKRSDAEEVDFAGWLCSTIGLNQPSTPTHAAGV

[6] = target: Tyrosine-protein kinase Blk (Homo sapiens) (UniProt P51451); test: Selectivity interaction (Kinase panel (Invitrogen)) EUB0000639a BLK; settings: at 200 nM
Tyrosine-protein kinase Blk (Homo sapiens), sequence (P51451 2-505 limits assumed): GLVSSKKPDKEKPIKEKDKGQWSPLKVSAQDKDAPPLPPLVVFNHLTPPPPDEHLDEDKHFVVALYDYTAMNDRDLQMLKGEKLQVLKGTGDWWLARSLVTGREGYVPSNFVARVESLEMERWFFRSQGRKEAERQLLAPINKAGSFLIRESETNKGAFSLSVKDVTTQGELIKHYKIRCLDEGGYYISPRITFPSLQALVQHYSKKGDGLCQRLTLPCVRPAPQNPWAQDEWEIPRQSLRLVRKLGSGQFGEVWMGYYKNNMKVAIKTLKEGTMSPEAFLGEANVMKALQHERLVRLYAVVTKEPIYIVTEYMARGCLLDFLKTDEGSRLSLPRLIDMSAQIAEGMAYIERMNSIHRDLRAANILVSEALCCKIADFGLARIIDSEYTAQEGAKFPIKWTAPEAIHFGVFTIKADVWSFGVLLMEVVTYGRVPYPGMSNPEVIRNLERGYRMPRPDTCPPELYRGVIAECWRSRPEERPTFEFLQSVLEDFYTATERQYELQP

[7] = target: T2, Dual specificity mitogen-activated protein kinase kinase 3 (Homo sapiens) (UniProt P46734); test: Selectivity interaction (ActivX KiNativ screen (kinase selectivity in THP-1 cell lysates)) EUB0000639a MAP2K3; type: subcellular; settings: lysate, at 0.01 µM
T2 sequence (whole entry): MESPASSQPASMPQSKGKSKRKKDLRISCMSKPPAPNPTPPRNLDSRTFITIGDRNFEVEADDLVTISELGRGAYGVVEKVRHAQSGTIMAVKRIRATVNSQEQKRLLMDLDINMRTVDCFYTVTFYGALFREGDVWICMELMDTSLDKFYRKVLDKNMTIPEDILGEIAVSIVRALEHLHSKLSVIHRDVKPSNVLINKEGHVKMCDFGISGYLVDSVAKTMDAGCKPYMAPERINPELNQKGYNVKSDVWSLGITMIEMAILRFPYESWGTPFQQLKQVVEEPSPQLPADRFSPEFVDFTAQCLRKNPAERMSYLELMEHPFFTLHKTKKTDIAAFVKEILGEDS

[8] = target: T3, Tyrosine-protein kinase Mer (Homo sapiens) (UniProt Q12866); test: Selectivity interaction (KinomeScan (DiscoverX)) EUB0000595a MERTK; settings: at 10 µM
T3 sequence (whole entry): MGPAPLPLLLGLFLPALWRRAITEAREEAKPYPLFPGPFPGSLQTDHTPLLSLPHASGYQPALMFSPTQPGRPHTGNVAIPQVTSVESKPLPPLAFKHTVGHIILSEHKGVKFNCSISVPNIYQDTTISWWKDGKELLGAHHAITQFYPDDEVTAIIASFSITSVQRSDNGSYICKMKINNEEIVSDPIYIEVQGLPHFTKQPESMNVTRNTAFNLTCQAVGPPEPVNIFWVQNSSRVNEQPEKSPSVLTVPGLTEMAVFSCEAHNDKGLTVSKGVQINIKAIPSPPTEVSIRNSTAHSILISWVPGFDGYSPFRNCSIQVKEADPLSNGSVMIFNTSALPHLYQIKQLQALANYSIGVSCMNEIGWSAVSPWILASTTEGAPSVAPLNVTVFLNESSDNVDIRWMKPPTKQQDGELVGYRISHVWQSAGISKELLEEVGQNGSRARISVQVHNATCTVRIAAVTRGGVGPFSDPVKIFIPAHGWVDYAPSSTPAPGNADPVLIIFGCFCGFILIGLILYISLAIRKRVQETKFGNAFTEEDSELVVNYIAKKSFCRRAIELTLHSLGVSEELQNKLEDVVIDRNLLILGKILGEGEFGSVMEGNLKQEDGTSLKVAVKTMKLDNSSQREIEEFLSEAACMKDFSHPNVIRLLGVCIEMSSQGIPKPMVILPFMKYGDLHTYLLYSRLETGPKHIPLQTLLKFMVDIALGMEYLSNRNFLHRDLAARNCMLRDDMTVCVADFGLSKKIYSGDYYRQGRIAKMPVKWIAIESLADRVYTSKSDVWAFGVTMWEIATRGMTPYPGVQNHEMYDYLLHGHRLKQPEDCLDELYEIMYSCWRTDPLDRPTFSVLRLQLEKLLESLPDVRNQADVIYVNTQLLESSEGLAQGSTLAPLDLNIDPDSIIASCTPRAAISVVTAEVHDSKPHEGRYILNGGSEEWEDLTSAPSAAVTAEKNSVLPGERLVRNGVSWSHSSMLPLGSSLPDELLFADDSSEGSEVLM

[9] = target: Ephrin type-A receptor 7 (Homo sapiens) (UniProt Q15375); test: Selectivity interaction (KinomeScan (DiscoverX)) EUB0000229b EPHA7; settings: at 10 µM
Ephrin type-A receptor 7 (Homo sapiens), sequence (Q15375 28-998 limits assumed): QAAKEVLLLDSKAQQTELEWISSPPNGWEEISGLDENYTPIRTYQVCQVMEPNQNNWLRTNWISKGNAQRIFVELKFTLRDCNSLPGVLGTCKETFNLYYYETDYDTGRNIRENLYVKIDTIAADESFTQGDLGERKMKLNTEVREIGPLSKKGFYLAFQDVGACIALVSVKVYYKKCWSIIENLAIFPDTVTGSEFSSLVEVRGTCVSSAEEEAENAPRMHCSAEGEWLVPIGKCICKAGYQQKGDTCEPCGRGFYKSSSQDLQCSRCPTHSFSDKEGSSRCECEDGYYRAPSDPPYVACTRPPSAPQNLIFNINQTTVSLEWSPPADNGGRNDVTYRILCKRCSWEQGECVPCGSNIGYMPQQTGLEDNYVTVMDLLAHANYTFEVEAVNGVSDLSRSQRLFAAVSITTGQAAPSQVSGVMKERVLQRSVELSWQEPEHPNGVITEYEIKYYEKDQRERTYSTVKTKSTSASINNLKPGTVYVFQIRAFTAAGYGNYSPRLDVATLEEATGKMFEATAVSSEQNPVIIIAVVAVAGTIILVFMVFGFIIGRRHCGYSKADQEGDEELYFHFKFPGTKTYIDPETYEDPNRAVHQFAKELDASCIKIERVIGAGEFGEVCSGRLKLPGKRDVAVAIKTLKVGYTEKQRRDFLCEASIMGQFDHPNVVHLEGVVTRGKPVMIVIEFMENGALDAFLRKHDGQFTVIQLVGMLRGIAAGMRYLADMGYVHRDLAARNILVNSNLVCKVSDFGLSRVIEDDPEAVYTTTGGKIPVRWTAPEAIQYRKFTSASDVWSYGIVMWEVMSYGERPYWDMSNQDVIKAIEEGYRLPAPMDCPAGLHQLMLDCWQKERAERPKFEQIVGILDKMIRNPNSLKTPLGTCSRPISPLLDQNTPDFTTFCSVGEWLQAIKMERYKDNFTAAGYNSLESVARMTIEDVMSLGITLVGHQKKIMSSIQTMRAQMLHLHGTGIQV

[10] = target: T4, Serine/threonine-protein kinase 3 (Homo sapiens) (UniProt Q13188); test: Selectivity interaction (KinomeScan (DiscoverX)) EUB0000092b STK3; settings: at 10 µM
T4 sequence (whole entry): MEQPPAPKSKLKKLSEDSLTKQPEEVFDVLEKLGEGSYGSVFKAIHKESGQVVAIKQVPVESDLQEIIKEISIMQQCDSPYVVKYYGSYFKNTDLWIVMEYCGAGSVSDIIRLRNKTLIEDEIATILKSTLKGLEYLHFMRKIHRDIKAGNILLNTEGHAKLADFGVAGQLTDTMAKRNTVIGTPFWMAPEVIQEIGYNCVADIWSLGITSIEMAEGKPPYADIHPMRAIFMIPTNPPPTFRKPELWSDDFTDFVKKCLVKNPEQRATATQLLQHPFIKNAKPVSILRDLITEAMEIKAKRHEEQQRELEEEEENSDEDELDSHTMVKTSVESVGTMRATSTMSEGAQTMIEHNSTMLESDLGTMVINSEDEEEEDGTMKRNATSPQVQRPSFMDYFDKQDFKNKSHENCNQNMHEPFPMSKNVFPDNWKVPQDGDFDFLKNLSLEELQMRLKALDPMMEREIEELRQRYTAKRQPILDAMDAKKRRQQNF

Tyrosine-protein kinase HCK (Homo sapiens), sequence (P08631 2-526 limits assumed): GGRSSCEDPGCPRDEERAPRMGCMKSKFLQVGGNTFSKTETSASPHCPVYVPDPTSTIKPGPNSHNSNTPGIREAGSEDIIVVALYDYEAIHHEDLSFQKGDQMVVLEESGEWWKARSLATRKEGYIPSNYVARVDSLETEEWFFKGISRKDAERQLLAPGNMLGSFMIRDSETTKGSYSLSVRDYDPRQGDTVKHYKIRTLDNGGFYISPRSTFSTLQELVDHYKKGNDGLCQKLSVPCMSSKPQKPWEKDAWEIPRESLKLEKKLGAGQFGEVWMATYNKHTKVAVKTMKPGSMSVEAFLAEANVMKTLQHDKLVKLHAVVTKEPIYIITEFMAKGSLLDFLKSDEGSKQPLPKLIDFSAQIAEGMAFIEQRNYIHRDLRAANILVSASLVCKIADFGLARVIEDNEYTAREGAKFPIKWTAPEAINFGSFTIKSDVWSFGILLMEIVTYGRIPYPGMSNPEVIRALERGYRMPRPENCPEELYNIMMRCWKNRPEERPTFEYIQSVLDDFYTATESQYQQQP

- % of control [1]: 5.35%
SMILES: Cn1cc(-n2cnc3c(NCc4nc5cc(Cl)c(Cl)cc5[nH]4)nc(N4CCOCC4)nc32)cn1

SMILES: CNC(=O)Nc1ccc(-c2nc(N3CC4CCC(C3)O4)c3cnn(C4CCC5(CC4)OCCO5)c3n2)cc1
- % of inhibition [2]: 3%

- % of inhibition [3]: 88%
SMILES: Cc1ccc(-c2ccc3c(ccc4sc5c(c43)NC[C@@H](C)NC5=O)n2)cn1

- % of control [4]: 6.6%
- % of control [5]: 100%
SMILES: CCN(CC)CCCCNc1ncc2cc(-c3cc(OC)cc(OC)c3)c(NC(=O)NC(C)(C)C)nc2n1

- % of inhibition [6]: 4.04%
- % of inhibition [7]: 9%
SMILES: CC[C@@H]1[C@H](F)C(=O)N[C@@H]1COc1nccc2cc(C(N)=O)c(OC)cc12 [ZIMLOVISERTIB]

SMILES: COCC(=O)NC/C=C/c1ccc2ncnc(Nc3ccc(Oc4ccc(C)nc4)c(C)c3)c2c1 [CP-724714]
- % of control [8]: 97%

SMILES: COc1cc(N(C)c2ccnc3ccc(C(F)(F)F)cc23)cc(OC)c1OC
- % binding [9]: 99%

SMILES: CCC(=O)N1CCN(c2ccc(-n3c(=O)ccc4cnc5ccc(-c6cnc7ccccc7c6)cc5c43)cc2C(F)(F)F)CC1
- % of control [10]: 24%
